Results reported in patent publication EP0974351A2, “Medicament for preventing and treating gastrointestinal damage” (JOUVEINAL, priority 1998, dated 2000).

Experiments:
[1] = tested on: ethanol-induced gastric lesions; assay: Ethanol-induced gastric lesions in rats; assay type: in vivo; conditions: ethanol alone 41.9 ± 3.7
Method: Male Sprague-Dawley rats weighing 240 to 250 g were fasted for 24 hours and allowed free access to water prior to experiment. All test drugs were given intragastrically. Rats were pretreated with different doses of gabapentin at doses of 40 and 60 mg. Thirty minutes later indomethacin (25 mg/kg) was administered. Another group of rats received 10 mg of gabapentin twice, 3 hours apart, followed by indomethacin administration. Three hours after indomethacin treatment, the rats were killed and gastric lesions were assessed. The severity of the lesions were determined by the measurement of the square area (mm^2) of visible lesions.
To determine the effects of gabapentin on ethanol-induced gastric lesions, rats were pretreated with 1 mL of 70% ethanol, followed by gabapentin at a dose of 40 and 60 mg, respectively. Another group of rats were pretreated by 20 mg of gabapentin given twice, 3 hours apart, followed by ethanol administration. Thirty minutes later, all rats were killed and gastric lesions were assessed.

[2] = tested on: LPS-Induced Delayed (12 Hours) Allodynia; assay: LPS-induced delayed (12 hours) rectal allodynia in rats; assay type: in vivo, Male Wistar rats
Description: The GABA analogs also have been evaluated for their ability to control and treat gastrointestinal disorders characterized as IBD and IBS. The assay utilized to evaluate the GABA analogs measures the effects of compound on lipopolysaccharide-induced delayed rectal allodynia in rats. Intraperitoneal (IP) injections of the endotoxin lipopolysaccharide (LPS) are known to induce long-lasting hyperalgesia in somatic pain models. The following assay was designed to evaluate the effect of IP injections of LPS on pain visceral threshold in an experimental model of rectal distension.
Male Wistar rats weighing 250 to 350 g were surgically prepared for electromyography, according to a previously described technique. Rats were anesthetized by i.p. injection of acepromazine and ketamine (Imalgene 1000, Rhöne-Mérieux, Lyon, France) at doses of 0.6 and 120 mg/kg, respectively. […] Electrodes were exteriorized on the back of the neck and protected by a glass tube attached to the skin. Animals were individually housed in polypropylene cages and kept in a temperature-controlled room (21°C). They were allowed free access to water and food (UAR pellets, Epinay, France).
Electromyographic recording began 5 days after surgery. The electrical activity of abdominal striated muscles was recorded with an electroencephalograph machine (Mini VIII, Alvar, Paris, France) using a short-time constant (0.03 sec) to remove low-frequency signals (<3 Hz) and a paper speed of 3.6 cm/minute.
Rats were placed in plastic tunnels (6 cm diameter; 25 cm length) where they could not move, escape or turn around, in order to prevent damage to the balloon. They are accustomized to this procedure for 3 or 4 days before rectal distension (RD) in order to minimize stress reaction during experiments. […] The balloon used for distension was an arterial embolectomy catheter (Fogarty, Edwards Laboratories, Inc., Santa Ana, USA). RD was performed by insertion of the balloon (2-mm diameter; 2-cm long) in the rectum, at 1 cm of the anus, the catheter being fixed at the tail. It was inflated progressively by step of 0.4 mL, from 0 to 1.6 mL, each step of inflation lasting 5 minutes. To detect possible leakage, the volume of water introduced in the balloon was checked by complete removal with a syringe at the end of the distension period.
In a second series of experiments, the same group of 8 rats received IP lipopolysaccharide (E Coil, serotype 0111:B4) or its vehicle, at a dose of 1 mg/kg IP, 1 hour after a control rectal distension. […]
Statistical analysis of the number of abdominal contractions occurring during each 5-minute period during RD was performed by one-way ANOVA followed by Student's paired t-test. Values were expressed as the mean ± SEM, and differences were considered significant for p <0.05.

NCC1(CC(=O)O)CCCCC1 [Gabapentin, 1-(aminomethyl)-cyclohexane acetic acid]
area of injury ([1]; 40 mg gabapentin, 1 mL of 70% ethanol): 24.4 ± 3.5 mm^2
area of injury ([1]; 60 mg gabapentin, 1 mL of 70% ethanol): 18.7 ± 2.2 mm^2
area of injury ([1]; 2 doses of 20 mg gabapentin, 3 hours apart, then 1 mL of 70% ethanol, assessed 30 min later): 2.1 ± 0.3 mm^2
Number of abdominal contractions/5 minutes ([2]; LPS (1 mg/kg) + Gabapentin (3.0 mg/kg (so in the source)) IP 30 min before distension, 12 hours after LPS, 0.4 mL, LPS + vehicle 9.7 ± 1.0, p <0.001): 0.7 ± 0.5 abdominal contractions/5 minutes
% of reduction vs "LPS/vehicle" ([2]; LPS (1 mg/kg) + Gabapentin (3.0 mg/kg (so in the source)) IP, 0.4 mL): -92.8%
Number of abdominal contractions/5 minutes ([2]; LPS (1 mg/kg) + Gabapentin (3.0 mg/kg (so in the source)) IP, 0.8 mL, LPS + vehicle 11.7 ± 1.2): 11.9 ± 0.8 abdominal contractions/5 minutes
Number of abdominal contractions/5 minutes ([2]; LPS (1 mg/kg) + Gabapentin (3.0 mg/kg (so in the source)) IP, 1.2 mL, LPS + vehicle 23.5 ± 2.2): 16.3 ± 3.2 abdominal contractions/5 minutes
